Assay results taken from US20240409585A1, “MACROCYCLIC IMMUNOMODULATORS” (priority 2021, published 2024).
Bridge positions count the residues as written; N and C are the ends. Square brackets hold non-standard residues; d marks the D form. Peptide text beside a SMILES is read from it. * marks the point of attachment. ξ: configuration not given here. Tyr(3-NO2) = N[C@@H](Cc1ccc(O)c([N+](=O)[O-])c1)C(=O)O; Trp(5-CN) = N#Cc1ccc2[nH]cc(C[C@H](N)C(=O)O)c2c1; Phe(4-CONH2) = NC(=O)c1ccc(C[C@H](N)C(=O)O)cc1; Phe(4-COOH) = N[C@@H](Cc1ccc(C(=O)O)cc1)C(=O)O; Trp(7-Me) = Cc1cccc2c(C[C@H](N)C(=O)O)c[nH]c12; Bip = N[C@@H](Cc1ccc(-c2ccccc2)cc1)C(=O)O; Phe(3-Me) = Cc1cccc(C[C@H](N)C(=O)O)c1; Bta = N[C@@H](Cc1csc2ccccc12)C(=O)O; Val(3-OH) = CC(C)(O)[C@H](N)C(=O)O; 4Pal = N[C@@H](Cc1ccncc1)C(=O)O; Cha = N[C@@H](CC1CCCCC1)C(=O)O; Cit = NC(=O)NCCC[C@H](N)C(=O)O; Thr(3ξ) = CC(O)[C@H](N)C(=O)O; Pip = O=C(O)[C@@H]1CCCCN1; dNva = CCC[C@@H](N)C(=O)O; Carboxymethyl = O=C(O)C*; NMeA = CN[C@@H](C)C(=O)O; Orn = NCCC[C@H](N)C(=O)O; Dab = NCC[C@H](N)C(=O)O; Nva = CCC[C@H](N)C(=O)O; Dap = NC[C@H](N)C(=O)O

Target: T1, PE-labeled human PD-L1-Ig binding to Jurkat cell line over-expressing human PD-1 (Jurkat-PD-1) (Homo sapiens, UniProt Q15116)
T1 construct: expressed in transfected cells; host or cells: Jurkat
Assay: Jurkat-PD-1 Cell Binding High-Content Screening Assay (CBA): Method 1
Settings: Jurkat-hPD-1 cells, PE-labeled PD-L1-Ig 20 nM final; read-out: Jurkat HPDL1 PD1 IC50 (uM) (Method 1)

T1 sequence (Q15116 25-288): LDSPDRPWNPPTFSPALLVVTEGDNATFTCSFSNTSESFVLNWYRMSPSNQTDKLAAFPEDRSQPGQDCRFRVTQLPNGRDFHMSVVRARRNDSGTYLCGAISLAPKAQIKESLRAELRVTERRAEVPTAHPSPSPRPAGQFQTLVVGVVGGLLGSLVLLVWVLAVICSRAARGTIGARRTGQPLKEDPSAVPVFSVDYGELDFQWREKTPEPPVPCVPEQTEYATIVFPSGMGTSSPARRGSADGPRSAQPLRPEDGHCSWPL

Structure (SMILES)	IC50 [µM]
CC[C@H](C)[C@@H]1NC(=O)[C@H](Cc2ccc(-c3ccccc3)cc2)NC(=O)[C@H](C(C)(C)O)NC(=O)[C@H](Cc2cccc(C)c2)NC(=O)[C@H](CC(=O)O)NC(=O)[C@H](Cc2ccc(O)cc2)NC(=O)[C@H](CC(N)=O)NC(=O)CSC[C@@H](C(=O)N[C@@H](CCN)C(N)=O)NC(=O)[C@H](CCC(=O)O)NC(=O)[C@H](C(C)C)NC(=O)[C@H](CC2CCCCC2)NC(=O)[C@H](CCN)NC(=O)[C@@H](CC(C)C)NC(=O)[C@H](C)N(C)C1=O [Compound 1697] ({CH2CO}-NYD[Phe(3-Me)][Val(3-OH)][Bip]I[NMeA][dL][Dab][Cha]VEC[Dab]-NH2; thioether N-14)	0.02
Cc1cccc(C[C@@H]2NC(=O)[C@H](CC(=O)O)NC(=O)[C@H](Cc3ccc(OCC(=O)O)cc3)NC(=O)[C@H](CCN)NC(=O)CSC[C@@H](C(=O)N[C@@H](CO)C(N)=O)NC(=O)[C@H](CO)NC(=O)[C@H](C(C)(C)O)NC(=O)[C@H](CC3CCCCC3)NC(=O)[C@H](CCN)NC(=O)[C@@H](CC(C)C)NC(=O)[C@H](C)N(C)C(=O)[C@H](Cc3ccc(C(=O)O)cc3)NC(=O)[C@H](Cc3ccc(-c4ccccc4)cc3)NC(=O)[C@H](Cc3ccc(C(N)=O)cc3)NC2=O)c1 [Compound 2179] ({CH2CO}-[Dab]Y(Carboxymethyl)D[Phe(3-Me)][Phe(4-CONH2)][Bip][Phe(4-COOH)][NMeA][dL][Dab][Cha][Val(3-OH)]SCS-NH2; thioether N-14)	0.06
Cc1cccc(C[C@@H]2NC(=O)[C@H](CC(=O)O)NC(=O)[C@H](Cc3ccc(OCC(=O)O)cc3)NC(=O)[C@H](CN)NC(=O)CSC[C@@H](C(N)=O)NC(=O)[C@H](CC(=O)O)NC(=O)[C@H](C(C)C)NC(=O)[C@H](CC3CCCCC3)NC(=O)[C@H](CCN)NC(=O)[C@@H](CC(C)C)NC(=O)[C@@H]3CCCCN3C(=O)[C@H](Cc3ccc(OCC(=O)O)cc3)NC(=O)[C@H](Cc3ccc(-c4ccccc4)cc3)NC(=O)[C@H](Cc3ccc(OCC(=O)O)cc3)NC2=O)c1 [Compound 1893] ({CH2CO}-[Dap]Y(Carboxymethyl)D[Phe(3-Me)]Y(Carboxymethyl)[Bip]Y(Carboxymethyl)[Pip][dL][Dab][Cha]VDC-NH2; thioether N-14)	0.26
Cc1cccc2c(C[C@@H]3NC(=O)[C@H](CC(=O)O)NC(=O)[C@H](Cc4ccc(O)cc4)NC(=O)[C@H](Cc4ccccc4)NC(=O)CSC[C@@H](C(=O)N[C@@H](C)C(N)=O)NC(=O)[C@H](CO)NC(=O)[C@H](C(C)C)NC(=O)[C@H](CC(C)C)NC(=O)[C@H](CC(N)=O)NC(=O)[C@@H](C)NC(=O)[C@H](C)N(C)C(=O)[C@H](C(C)C)NC(=O)[C@H](Cc4ccc(-c5ccccc5)cc4)NC(=O)[C@H](CC(C)C)NC3=O)c[nH]c12 [Compound 1796] ({CH2CO}-FYD[Trp(7-Me)]L[Bip]V[NMeA][dA]NLVSCA-NH2; thioether N-14)	0.16
CC(C)C[C@@H]1NC(=O)[C@H](CCCNC(=N)N)NC(=O)[C@H](Cc2csc3ccccc23)NC(=O)[C@H](C)N(C)C(=O)[C@H](CCCNC(=N)N)NC(=O)[C@H](Cc2ccc(-c3ccccc3)cc2)NC(=O)[C@H](C(C)C)NC(=O)[C@H](Cc2c[nH]c3ccccc23)NC(=O)[C@H](CC(=O)O)NC(=O)[C@H](Cc2ccc(O)cc2)NC(=O)[C@H](Cc2cnc[nH]2)NC(=O)CSC[C@@H](C(=O)N[C@@H](C)C(N)=O)NC(=O)[C@H](CO)NC(=O)[C@H](C(C)C)NC1=O [Compound 1040] ({CH2CO}-HYDWV[Bip]R[NMeA][Bta]RLVSCA-NH2; thioether N-14)	0.17
CC[C@H](C)[C@@H]1NC(=O)[C@H](Cc2ccc(-c3ccccc3)cc2)NC(=O)[C@H](C(C)C)NC(=O)[C@H](Cc2cccc(C)c2)NC(=O)[C@H](CC(=O)O)NC(=O)[C@H](Cc2ccc(O)cc2)NC(=O)[C@H](CC(N)=O)NC(=O)CSC[C@@H](C(=O)N[C@H](C)C(N)=O)NC(=O)[C@H](CCC(=O)O)NC(=O)[C@H](C(C)(C)O)NC(=O)[C@H](CC2CCCCC2)NC(=O)[C@H](CCN)NC(=O)[C@@H](CC(C)C)NC(=O)[C@H](C)N(C)C1=O [Compound 1696] ({CH2CO}-NYD[Phe(3-Me)]V[Bip]I[NMeA][dL][Dab][Cha][Val(3-OH)]EC[dA]-NH2; thioether N-14)	0.01
Cc1cccc(C[C@@H]2NC(=O)[C@H](CC(=O)O)NC(=O)[C@H](Cc3ccc(OCC(=O)O)cc3)NC(=O)[C@H](C(C)O)NC(=O)CSC[C@@H](C(=O)N[C@@H](CO)C(=O)O)NC(=O)[C@H](C(C)O)NC(=O)[C@H](C(C)C)NC(=O)[C@H](CC3CCCCC3)NC(=O)[C@H](CCN)NC(=O)[C@@H](CC(C)C)NC(=O)[C@H](C)N(C)C(=O)[C@H](Cc3ccc(OCC(=O)O)cc3)NC(=O)[C@H](Cc3ccc(-c4ccccc4)cc3)NC(=O)[C@H](Cc3ccc(C(=O)O)cc3)NC2=O)c1 (stereo partly drawn) [Compound 2231] ({CH2CO}-[Thr(3ξ)]Y(Carboxymethyl)D[Phe(3-Me)][Phe(4-COOH)][Bip]Y(Carboxymethyl)[NMeA][dL][Dab][Cha]V[Thr(3ξ)]CS-OH; thioether N-14)	0.02
CCC[C@H]1NC(=O)[C@H](C)N(C)C(=O)[C@H](C(C)C)NC(=O)[C@H](Cc2ccc(-c3ccccc3)cc2)NC(=O)[C@H](CC(C)C)NC(=O)[C@H](Cc2c[nH]c3ccccc23)NC(=O)[C@H](CC(=O)O)NC(=O)[C@H](Cc2ccc(O)cc2)NC(=O)[C@H](Cc2ccccc2)NC(=O)CSC[C@@H](C(=O)N[C@@H](C)C(N)=O)NC(=O)[C@H](CO)NC(=O)[C@H](C(C)C)NC(=O)[C@H](CC(C)C)NC(=O)[C@H](CC(N)=O)NC1=O [Compound 1755] ({CH2CO}-FYDWL[Bip]V[NMeA][dNva]NLVSCA-NH2; thioether N-14)	0.03

Other lines, results leading:

IC50 [µM]	Structure (SMILES)
0.06	CC(C)C[C@@H]1NC(=O)[C@H](CCN)NC(=O)[C@@H](CC(C)C)NC(=O)[C@H](C)N(C)C(=O)[C@H](CCCNC(=N)N)NC(=O)[C@H](Cc2ccc(-c3ccccc3)cc2)NC(=O)[C@H](C(C)C)NC(=O)[C@H](Cc2c[nH]c3ccccc23)NC(=O)[C@H](CC(=O)O)NC(=O)[C@H](Cc2ccc(OCC(=O)O)cc2)NC(=O)[C@H](CN)NC(=O)CSC[C@@H](C(=O)N[C@@H](C)C(N)=O)NC(=O)[C@H]([C@@H](C)O)NC(=O)[C@H](C(C)C)NC1=O [Compound 1450] ({CH2CO}-[Dap]Y(Carboxymethyl)DWV[Bip]R[NMeA][dL][Dab]LVTCA-NH2; thioether N-14)
0.03	CC(C)C[C@@H]1NC(=O)[C@H](CCCN)NC(=O)[C@@H](CC(C)C)NC(=O)[C@H](C)N(C)C(=O)[C@H](CCCNC(=N)N)NC(=O)[C@H](Cc2ccc(-c3ccccc3)cc2)NC(=O)[C@H](C(C)C)NC(=O)[C@H](Cc2c[nH]c3ccccc23)NC(=O)[C@H](CC(=O)O)NC(=O)[C@H](Cc2ccc(O)c([N+](=O)[O-])c2)NC(=O)[C@H](CC(N)=O)NC(=O)CSC[C@@H](C(=O)N[C@@H](C)C(N)=O)NC(=O)[C@H]([C@@H](C)O)NC(=O)[C@H](C(C)C)NC1=O [Compound 1154] ({CH2CO}-N[Tyr(3-NO2)]DWV[Bip]R[NMeA][dL][Orn]LVTCA-NH2; thioether N-14)
0.05	CC(C)C[C@@H]1NC(=O)[C@H](CCN)NC(=O)[C@@H](CC(C)C)NC(=O)[C@H](C)N(C)C(=O)[C@H](CCCNC(N)=O)NC(=O)[C@H](Cc2ccc(-c3ccccc3)cc2)NC(=O)[C@H](C(C)C)NC(=O)[C@H](Cc2c[nH]c3ccccc23)NC(=O)[C@H](CC(=O)O)NC(=O)[C@H](Cc2ccc(C(=O)O)cc2)NC(=O)[C@H](Cc2ccc(OCC(=O)O)cc2)NC(=O)CSC[C@@H](C(=O)N[C@@H](C)C(N)=O)NC(=O)[C@H]([C@@H](C)O)NC(=O)[C@H](C(C)C)NC1=O [Compound 1573] ({CH2CO}-Y(Carboxymethyl)[Phe(4-COOH)]DWV[Bip][Cit][NMeA][dL][Dab]LVTCA-NH2; thioether N-14)
0.1	CC(C)C[C@@H]1NC(=O)[C@H](CCN)NC(=O)[C@@H](CC(C)C)NC(=O)[C@H](C)N(C)C(=O)[C@H](CCCNC(=N)N)NC(=O)[C@H](Cc2ccc(-c3ccccc3)cc2)NC(=O)[C@H](C(C)C)NC(=O)[C@H](Cc2c[nH]c3ccc(C#N)cc23)NC(=O)[C@H](CC(=O)O)NC(=O)[C@H](Cc2ccc(O)cc2)NC(=O)[C@H](Cc2ccccc2)NC(=O)CSC[C@@H](C(=O)N[C@@H](C)C(N)=O)NC(=O)[C@H]([C@@H](C)O)NC(=O)[C@H](C(C)C)NC1=O [Compound 1203] ({CH2CO}-FYD[Trp(5-CN)]V[Bip]R[NMeA][dL][Dab]LVTCA-NH2; thioether N-14)
0.05	CC(C)C[C@@H]1NC(=O)[C@H](CCCNC(=N)N)NC(=O)[C@@H](CC(C)C)NC(=O)[C@H](C)N(C)C(=O)[C@H](CCCNC(=N)N)NC(=O)[C@H](Cc2ccc(-c3ccccc3)cc2)NC(=O)[C@H](C(C)C)NC(=O)[C@H](Cc2c[nH]c3ccccc23)NC(=O)[C@H](CC(=O)O)NC(=O)[C@H](Cc2ccc(C(=O)O)cc2)NC(=O)[C@H](Cc2ccncc2)NC(=O)CSC[C@@H](C(=O)N[C@@H](C)C(N)=O)NC(=O)[C@H]([C@@H](C)O)NC(=O)[C@H](C(C)C)NC1=O [Compound 1077] ({CH2CO}-[4Pal][Phe(4-COOH)]DWV[Bip]R[NMeA][dL]RLVTCA-NH2; thioether N-14)
0.03	CC(C)C[C@@H]1NC(=O)[C@H](CCN)NC(=O)[C@@H](CC(C)C)NC(=O)[C@H](C)N(C)C(=O)[C@H](CCCNC(N)=O)NC(=O)[C@H](Cc2ccc(-c3ccccc3)cc2)NC(=O)[C@H](C(C)C)NC(=O)[C@H](Cc2c[nH]c3ccccc23)NC(=O)[C@H](CC(=O)O)NC(=O)[C@H](Cc2ccc(O)cc2)NC(=O)[C@H](CCCN)NC(=O)CSC[C@@H](C(=O)N[C@@H](C)C(N)=O)NC(=O)[C@H]([C@@H](C)O)NC(=O)[C@H](C(C)C)NC1=O [Compound 1347] ({CH2CO}-[Orn]YDWV[Bip][Cit][NMeA][dL][Dab]LVTCA-NH2; thioether N-14)
0.1	CCC[C@@H]1NC(=O)[C@H](CC(C)C)NC(=O)[C@H](CCCNC(=N)N)NC(=O)[C@@H](CC(C)C)NC(=O)[C@H](C)N(C)C(=O)[C@H](CCCNC(=N)N)NC(=O)[C@H](Cc2ccc(-c3ccccc3)cc2)NC(=O)[C@H](C(C)C)NC(=O)[C@H](Cc2c[nH]c3ccccc23)NC(=O)[C@H](CC(=O)O)NC(=O)[C@H](Cc2ccc(O)cc2)NC(=O)[C@H](Cc2ccccc2)NC(=O)CSC[C@@H](C(=O)N[C@@H](C)C(N)=O)NC(=O)[C@H]([C@@H](C)O)NC1=O [Compound 1112] ({CH2CO}-FYDWV[Bip]R[NMeA][dL]RL[Nva]TCA-NH2; thioether N-14)
